Test results taken from patent publication US20100298141A1, “SUBSTITUTED PYRIDINE N-OXIDE HERBICIDES” (E. I. DU PONT DE NEMOURS AND COMPANY, priority 2007, published 2010).

Experiments:
catchweed bedstraw = test: Test C pre-/postemergence test; type: in vivo, Galium aparine; settings: for Plant response rating (0 to 100), Galium: 250 g ai/ha
In short: (§1)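 Test chemicals were formulated with surfactant in a non-phytotoxic solvent and sprayed both on freshly planted seeds (preemergence) and on 1- to 4-leaf plants of 2–18 cm (postemergence). Flooded-paddy pots received compound directly into 3 cm of standing water, maintained for the test.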

morningglory [1] = test: Test C pre-/postemergence test; type: in vivo, Ipomoea coccinea; settings: for Plant response rating (0 to 100), Morningglory: 250 g ai/ha
In short: as §1

yellow nutsedge = test: Test C pre-/postemergence test; type: in vivo, Cyperus esculentus; settings: for Plant response rating (0 to 100), Nutsedge, Yellow: 250 g ai/ha
In short: as §1

morningglory [2] = test: Test A pre-/postemergence greenhouse test; type: in vivo, Ipomoea spp.; settings: for Morningglory plant response rating: 0 to 100 scale; for Plant response rating, Morningglory: 0 to 100 scale where 0 is no effect and 100 is complete control
In short: (§2)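 Sowing in loam/sand; same-day pre (directed soil spray) and post (foliar, 1–2 leaf, 2–10 cm) treatment with surfactant-containing non-phytotoxic solvent formulation; ~10 days in greenhouse; eye-scored injury against untreated plants.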

corn = test: Test A pre-/postemergence greenhouse test; type: in vivo, Zea mays; settings: for Corn plant response rating: 0 to 100 scale; for Plant response rating, Corn: 0 to 100 scale where 0 is no effect and 100 is complete control
In short: as §2

[3] = system: common (oilseed) sunflower; test: Test C pre-/postemergence test; type: in vivo, Helianthus annuus; settings: for Sunflower plant response rating: preemergence, scale 0 (no effect) to 100 (complete control); for Plant response rating (0 to 100), Sunflower: Preemergence, 250 g ai/ha
In short: as §1

pigweed = test: Test C pre-/postemergence test; type: in vivo, Amaranthus retroflexus; settings: for Plant response rating (0 to 100), Pigweed: 250 g ai/ha
In short: as §1

giant foxtail = test: Test A pre-/postemergence greenhouse test; type: in vivo, Setaria faberi; settings: for Foxtail, Giant plant response rating: 0 to 100 scale; for Plant response rating, Foxtail, Giant: 0 to 100 scale where 0 is no effect and 100 is complete control
In short: as §2

crabgrass = test: Test A pre-/postemergence greenhouse test; type: in vivo, Digitaria sanguinalis; settings: for Crabgrass, Large plant response rating: 0 to 100 scale; for Plant response rating, Crabgrass, Large: 0 to 100 scale where 0 is no effect and 100 is complete control
In short: as §2

wheat [4] = test: Test A pre-/postemergence greenhouse test; type: in vivo, Triticum aestivum; settings: for Wheat plant response rating: 0 to 100 scale; for Plant response rating, Wheat: 0 to 100 scale where 0 is no effect and 100 is complete control
In short: as §2

wheat [5] = test: Test C pre-/postemergence test; type: in vivo, Triticum aestivum; settings: for Wheat plant response rating: preemergence, scale 0 (no effect) to 100 (complete control); for Plant response rating (0 to 100), Wheat: Preemergence, 250 g ai/ha
In short: as §1

umbrella sedge = test: Test C flooded paddy test; type: in vivo, Cyperus difformis; settings: Flood
In short: (§3)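 Flooded 3 cm over soil; compound into paddy water; depth kept constant. Greenhouse 13–15 d.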

Goosegrass = test: Test C pre-/postemergence test; type: in vivo, Eleusin indica; settings: for Plant response rating (0 to 100), Goosegrass: 250 g ai/ha
In short: as §1

Italian ryegrass = test: Test C pre-/postemergence test; type: in vivo, Lolium multiflorum; settings: for Plant response rating (0 to 100), Ryegrass, Italian: 250 g ai/ha
In short: as §1

soybean = test: Test C pre-/postemergence test; type: in vivo, Glycine max; settings: for Plant response rating (0 to 100), Soybean: 250 g ai/ha
In short: as §1

bermudagrass = test: Test C pre-/postemergence test; type: in vivo, Cynodon dactylon; settings: for Plant response rating (0 to 100), Bermudagrass: 250 g ai/ha
In short: as §1

barnyardgrass = test: Test C flooded paddy test; type: in vivo, Echinochloa crus-galli; settings: Flood
In short: as §3

[6] = 31 g ai/ha, Preemergence, scale 0 to 100
[7] = 62 g ai/ha, preemergence, scale 0 (no effect) to 100 (complete control)
[8] = preemergence, 125 g ai/ha, scale 0 (no effect) to 100 (complete control)
[9] = Postemergence, 125 g ai/ha, 0 is no effect, 100 is complete control
[10] = Postemergence, 500 g ai/ha, 0 is no effect, 100 is complete control
[11] = Preemergence, 125 g ai/ha, 0 no effect, 100 complete control
[12] = 31 g ai/ha, scale 0 to 100 (0 no effect, 100 complete control)
[13] = 62 g ai/ha, scale 0 to 100, 0 no effect, 100 complete control, 13 to 15 days
[14] = 125 g ai/ha, scale 0 to 100, 0 no effect, 100 complete control, 13 to 15 days
[15] = 250 g ai/ha, scale 0 to 100 (0 no effect, 100 complete control)

Cc1cc[n+]([O-])c(S(=O)(=O)C(C)c2c(C(F)(F)F)nn(C)c2OC(F)F)c1 (stereo not drawn) [Compound 11]
Galium plant response rating (catchweed bedstraw; [6]): 50 | Galium plant response rating (catchweed bedstraw; [7]): 100 | Plant response rating (0 to 100), Galium (catchweed bedstraw; Preemergence): 100 | Galium plant response rating (catchweed bedstraw; [8]): 100 | Morningglory plant response rating (morningglory [1]; [6]): 98 | Morningglory plant response rating (morningglory [1]; [7]): 100 | Plant response rating (0 to 100), Morningglory (morningglory [1]; Preemergence): 100 | Morningglory plant response rating (morningglory [1]; [8]): 100 | Nutsedge, Yellow plant response rating (yellow nutsedge; [6]): 70 | Nutsedge, Yellow plant response rating (yellow nutsedge; [7]): 98 | Plant response rating (0 to 100), Nutsedge, Yellow (yellow nutsedge; Preemergence): 100 | Nutsedge, Yellow plant response rating (yellow nutsedge; [8]): 100 | Morningglory plant response rating (morningglory [2]; [9]): 40 | Morningglory plant response rating (morningglory [2]; [10]): 50 | Morningglory plant response rating (morningglory [2]; [11]): 60 | Plant response rating, Morningglory (morningglory [2]; Preemergence, 500 g ai/ha): 90 | Corn plant response rating (corn; [9]): 30 | Corn plant response rating (corn; [10]): 50 | Corn plant response rating (corn; [11]): 30 | Plant response rating, Corn (corn; Preemergence, 500 g ai/ha): 60 | Sunflower plant response rating ([3]; 62 g ai/ha): 30 | Plant response rating (0 to 100), Sunflower [3]: 98 | Sunflower plant response rating ([3]; 125 g ai/ha): 98 | Pigweed plant response rating (pigweed; [6]): 100 | Pigweed plant response rating (pigweed; [7]): 100 | Plant response rating (0 to 100), Pigweed (pigweed; Preemergence): 100 | Pigweed plant response rating (pigweed; [8]): 100 | Foxtail, Giant plant response rating (giant foxtail; [9]): 70 | Foxtail, Giant plant response rating (giant foxtail; [10]): 80 | Foxtail, Giant plant response rating (giant foxtail; [11]): 100 | Plant response rating, Foxtail, Giant (giant foxtail; Preemergence, 500 g ai/ha): 100 | Crabgrass, Large plant response rating (crabgrass; [9]): 70 | Crabgrass, Large plant response rating (crabgrass; [10]): 80 | Crabgrass, Large plant response rating (crabgrass; [11]): 90 | Plant response rating, Crabgrass, Large (crabgrass; Preemergence, 500 g ai/ha): 100 | Wheat plant response rating (wheat [4]; [9]): 50 | Wheat plant response rating (wheat [4]; [10]): 60 | Wheat plant response rating (wheat [4]; [11]): 50 | Plant response rating, Wheat (wheat [4]; Preemergence, 500 g ai/ha): 80 | Wheat plant response rating (wheat [5]; 62 g ai/ha): 20 | Plant response rating (0 to 100), Wheat (wheat [5]): 85 | Wheat plant response rating (wheat [5]; 125 g ai/ha): 80 | Plant response rating, Sedge, Umbrella (umbrella sedge; [12]): 0 | Plant response rating, Sedge, Umbrella (umbrella sedge; [13]): 90 | Plant response rating, Sedge, Umbrella (umbrella sedge; [14]): 90 | Plant response rating, Sedge, Umbrella (umbrella sedge; [15]): 90 | Goosegrass plant response rating (Goosegrass; [6]): 100 | Goosegrass plant response rating (Goosegrass; [7]): 100 | Plant response rating (0 to 100), Goosegrass (Goosegrass; Preemergence): 100 | Goosegrass plant response rating (Goosegrass; [8]): 100 | Ryegrass, Italian plant response rating (Italian ryegrass; [6]): 0 | Ryegrass, Italian plant response rating (Italian ryegrass; [7]): 40 | Plant response rating (0 to 100), Ryegrass, Italian (Italian ryegrass; Preemergence): 80 | Ryegrass, Italian plant response rating (Italian ryegrass; [8]): 70 | Soybean plant response rating (soybean; [6]): 0 | Soybean plant response rating (soybean; [7]): 0 | Plant response rating (0 to 100), Soybean (soybean; Preemergence): 100 | Soybean plant response rating (soybean; [8]): 20 | Bermudagrass plant response rating (bermudagrass; [6]): 100 | Bermudagrass plant response rating (bermudagrass; [7]): 100 | Plant response rating (0 to 100), Bermudagrass (bermudagrass; Preemergence): 100 | Bermudagrass plant response rating (bermudagrass; [8]): 100 | Plant response rating, Barnyardgrass (barnyardgrass; [12]): 0 | Plant response rating, Barnyardgrass (barnyardgrass; [13]): 70 | Plant response rating, Barnyardgrass (barnyardgrass; [14]): 75 | Plant response rating, Barnyardgrass (barnyardgrass; [15]): 85

Cn1nc(C(F)(F)F)c(C(Cl)S(=O)(=O)c2cccc[n+]2[O-])c1Cl (stereo not drawn) [Compound 12]
Galium plant response rating (catchweed bedstraw; [6]): 80 | Galium plant response rating (catchweed bedstraw; [7]): 100 | Plant response rating (0 to 100), Galium (catchweed bedstraw; Preemergence): 100 | Galium plant response rating (catchweed bedstraw; [8]): 100 | Morningglory plant response rating (morningglory [1]; [6]): 0 | Morningglory plant response rating (morningglory [1]; [7]): 0 | Plant response rating (0 to 100), Morningglory (morningglory [1]; Preemergence): 80 | Morningglory plant response rating (morningglory [1]; [8]): 5 | Nutsedge, Yellow plant response rating (yellow nutsedge; [6]): 45 | Nutsedge, Yellow plant response rating (yellow nutsedge; [7]): 70 | Plant response rating (0 to 100), Nutsedge, Yellow (yellow nutsedge; Preemergence): 100 | Nutsedge, Yellow plant response rating (yellow nutsedge; [8]): 90 | Morningglory plant response rating (morningglory [2]; [9]): 20 | Morningglory plant response rating (morningglory [2]; [10]): 30 | Morningglory plant response rating (morningglory [2]; [11]): 0 | Plant response rating, Morningglory (morningglory [2]; Preemergence, 500 g ai/ha): 60 | Corn plant response rating (corn; [9]): 0 | Corn plant response rating (corn; [10]): 0 | Corn plant response rating (corn; [11]): 0 | Plant response rating, Corn (corn; Preemergence, 500 g ai/ha): 30 | Sunflower plant response rating ([3]; 62 g ai/ha): 0 | Plant response rating (0 to 100), Sunflower [3]: 20 | Sunflower plant response rating ([3]; 125 g ai/ha): 0 | Pigweed plant response rating (pigweed; [6]): 100 | Pigweed plant response rating (pigweed; [7]): 100 | Plant response rating (0 to 100), Pigweed (pigweed; Preemergence): 100 | Pigweed plant response rating (pigweed; [8]): 100 | Foxtail, Giant plant response rating (giant foxtail; [9]): 50 | Foxtail, Giant plant response rating (giant foxtail; [10]): 70 | Foxtail, Giant plant response rating (giant foxtail; [11]): 80 | Plant response rating, Foxtail, Giant (giant foxtail; Preemergence, 500 g ai/ha): 100 | Crabgrass, Large plant response rating (crabgrass; [9]): 60 | Crabgrass, Large plant response rating (crabgrass; [10]): 70 | Crabgrass, Large plant response rating (crabgrass; [11]): 70 | Plant response rating, Crabgrass, Large (crabgrass; Preemergence, 500 g ai/ha): 100 | Wheat plant response rating (wheat [4]; [9]): 0 | Wheat plant response rating (wheat [4]; [10]): 40 | Wheat plant response rating (wheat [4]; [11]): 0 | Plant response rating, Wheat (wheat [4]; Preemergence, 500 g ai/ha): 30 | Wheat plant response rating (wheat [5]; 62 g ai/ha): 0 | Plant response rating (0 to 100), Wheat (wheat [5]): 20 | Wheat plant response rating (wheat [5]; 125 g ai/ha): 0 | Plant response rating, Sedge, Umbrella (umbrella sedge; [12]): 90 | Plant response rating, Sedge, Umbrella (umbrella sedge; [13]): 95 | Plant response rating, Sedge, Umbrella (umbrella sedge; [14]): 100 | Plant response rating, Sedge, Umbrella (umbrella sedge; [15]): 100 | Goosegrass plant response rating (Goosegrass; [6]): 100 | Goosegrass plant response rating (Goosegrass; [7]): 100 | Plant response rating (0 to 100), Goosegrass (Goosegrass; Preemergence): 100 | Goosegrass plant response rating (Goosegrass; [8]): 100 | Ryegrass, Italian plant response rating (Italian ryegrass; [6]): 0 | Ryegrass, Italian plant response rating (Italian ryegrass; [7]): 70 | Plant response rating (0 to 100), Ryegrass, Italian (Italian ryegrass; Preemergence): 85 | Ryegrass, Italian plant response rating (Italian ryegrass; [8]): 70 | Soybean plant response rating (soybean; [6]): 0 | Soybean plant response rating (soybean; [7]): 0 | Plant response rating (0 to 100), Soybean (soybean; Preemergence): 10 | Soybean plant response rating (soybean; [8]): 0 | Bermudagrass plant response rating (bermudagrass; [6]): 100 | Bermudagrass plant response rating (bermudagrass; [7]): 100 | Plant response rating (0 to 100), Bermudagrass (bermudagrass; Preemergence): 100 | Bermudagrass plant response rating (bermudagrass; [8]): 100 | Plant response rating, Barnyardgrass (barnyardgrass; [12]): 0 | Plant response rating, Barnyardgrass (barnyardgrass; [13]): 50 | Plant response rating, Barnyardgrass (barnyardgrass; [14]): 80 | Plant response rating, Barnyardgrass (barnyardgrass; [15]): 85
